Results from patent publication US11731974B2, “N-acyl-(3-substituted)-(8-substituted)-5,6-dihydro-[1,2,4]triazolo[4,3-a]pyrazines as selective NK-3 receptor antagonists” (Ogeda SA, priority 2013, dated 2023).

Experiments:
circulating LH levels = test: Castrated male rat model, circulating levels of luteinizing hormone (LH); format: in vivo; details: single oral dose less than or equal to 30 mg/kg, p<0.05
Experimental: In Vivo Assay to Assess Compound Activity in Rat (Oral Dosing)
Castrated male rat model to assess the effect of compound of invention on circulating levels of luteinizing hormone (LH)
The effect of compounds of the invention to inhibit luteinizing hormone (LH) secretion is determined by the following biological studies.
In humans and rodents, castration is well-precedented to permit heightened, persistent GnRH signaling and consequent elevation of circulating LH. Thus, a castrated rat model is used to provide a broad index for measurement of LH inhibition as a marker of test compound inhibition of the GnRH signaling pathway.
Castrated adult male Sprague-Dawley (SD) rats (150-175 g) were purchased from Janvier (St Berthevin, France). All animals were housed 2 per cage in a temperature-controlled room (22±2° C.) and 50±5% relative humidity with a 12 hour/12 hour light/dark cycles (lights off at 6 h00 pm). The animals were allowed 3 weeks of postoperative recovery prior to study. Animals were handled on a daily basis. Standard diet and tap water were provided ad libitum. Animal cage litters were changed once a week. On the study day, animals were acclimated to the procedure room for a period of one hour prior to the initiation of the experiment.
Compounds of the invention were formulated in 0.5% methyl cellulose.
After basal sampling (TO) a single dose of compounds of the invention or vehicle was administrated orally to rats. Blood samples were then collected at several time points post dosing (45, 90, 150, 300 and 420 minutes). Blood samples were obtained via tail vein bleed, drawn into EDTA-containing tubes and centrifuged immediately. Plasma samples were collected and stored in a −80° C. freezer until assayed. Serum LH levels were determined using radioimmunoassay kit from RIAZEN—Rat LH, Zentech (Liege, Belgium). Baseline was defined as the initial basal blood sample.

[1] = test system: serum TT, LH, FSH in women with PCOS; test: Phase 2a clinical trial, PolyCystic Ovary Syndrome (PCOS); format: in vivo, human; details: 180 mg QD
Experimental: The Phase 2a trial was double blind and randomized.
Blood draws for LH, FSH and TT were taken every visit between 2 and 8 hours after drug intake (baseline and week 3-6-12). […] These blood draws were the basis for assessing the primary (TT) and secondary (LH, FSH, LH:FSH ratio) endpoints. The primary endpoint of Total Testosterone was measured according to GLP using an LC-MS/MS method.
PCOS is typically characterized by excessive ovarian androgen production, failure of ovulation, and slightly enlarged ovaries with numerous peripheral small follicles that appear as cysts. The disorder is commonly accompanied by infertility. Typically, the clinical features of PCOS are associated with hypersecretion of LH and androgens (TT) but with normal serum concentrations of FSH hormone.
Statistical analyses performed by 2-way ANOVA comparing placebo to treatment.

[2] = test system: body temperature in ovariectomized ewes; test: In vivo assay in OVX ewes, thermoregulation; parameters: species or system ewe; details: 1 mg/kg intravenous
Text: In Vivo Assay in OVX Ewes-Activity in Thermoregulation Experimental Methods: Evaluation of Thermoregulation in OVX Ewe […] After 4 months recovery, animals were acclimatised to housing in single pens for a period of 7 days with ad libitum access to water and […] lucerne hay. One day prior to experimentation, the animals received a jugular vein cannula ([…], Tuta Laboratories, Lane Cove, Australia). The cannula were kept patent with heparinised saline. […] Animals were fed at 12 h00. Rectal temperatures were monitored with a probe at hourly intervals throughout the experiment, starting at 7 h40 and concluding at 15 h40. […] However, this pyrogenic response to feeding in ovarectomized ewes was not observed in any animals treated with compound no 5. […] Graphical data presented as mean±SEM for vehicle-treated versus compound no 5-treated ewes (N=5/group). Statistical analyses performed by 2-way ANOVA followed by Sidak's Multiple Comparisons Test between treatment groups at the indicated time interval, *p<0.05. Conclusions: Ovariectomy in the ewe causes changes in core body temperature considered analogous to menopausal hot flashes ([…], Bryant, & Turner, 2003) to the extent that a transient, pyrogenic response to feeding is observed (Henry, Dunshea, Gould, & Clarke, 2008).

plasma testosterone = test: Plasma testosterone in gonad intact male rats; format: in vivo, rat; details: 3 mg/kg single oral, vs vehicle, FIG. 1
Experimental: The study was designed to evaluate the effect of compounds of the invention on testosterone circulating levels following oral administration at 3 mg/kg on SD gonad intact male rats.
(§1) Briefly the experimental methods used for this study were as follows:
Two groups of non-fasted rats (male, Sprague-Dawley, 200 to 225 g; n=4 rats/group) with jugular vein cannulation, were dosed via a single oral administration of compounds of the invention at 3 mg/kg. The control group was dosed with the vehicle. Compounds of the invention were prepared in a dose formulation of pyrogen-free water with 0.5% methylcellulose. Blood samples were collected via the catheter implanted in the jugular vein at pre-determined intervals using EDTA-3K as anti-coagulant. Samples were chilled and rapidly processed by centrifugation to obtain corresponding plasma samples. Testosterone hormone levels were determined by RIA performed on plasma samples collected for all the groups at 5 minutes before administration (basal time), and at 45, 90, 150, 300, 480 minutes and 24 hours after dosing.

plasma estradiol = test: Estradiol circulating level in female rats; format: in vivo, rat; details: 10 mg/kg b.i.d. oral, two consecutive estrous cycles, FIG. 3
Experimental: Effect of compounds of the invention on Estradiol circulating level in female rats. The aim of this study was to evaluate the effect of compounds of the invention on plasma estradiol levels following oral administration at 10 mg/kg (b.i.d.) for a period of 10 days in female rats.
as §1
Two groups of adult, female rats (Sprague-Dawley, ˜320 g) were treated in-phase with their individual estrous cycles. […] Compounds of the invention were prepared in a dose formulation of pyrogen-free water with 0.5% methylcellulose. Estradiol levels were determined for all groups by ELISA performed on plasma samples derived from blood collections taken at 30 minutes before the daily, 9 h30 test article administration on all days presented in FIG. 3.

Compound	circulating LH levels (circulating LH levels)	also measured
Cc1nsc(-c2nnc3n2CCN(C(=O)c2ccc(Cl)c(Cl)c2)[C@@H]3C)n1 [Compound 1, (R)-(3,4-dichlorophenyl)(8-methyl-3-(3-methyl-1,2,4-thiadiazol-5-yl)-5,6-dihydro-[1,2,4]triazolo[4,3-a]pyrazin-7(8H)-yl)methanone]	significantly suppressed	
CCc1nsc(-c2nnc3n2CCN(C(=O)c2ccc(F)cc2)[C@@H]3C)n1 [Compound 2, (R)-(3-(3-ethyl-1,2,4-thiadiazol-5-yl)-8-methyl-5,6-dihydro-[1,2,4]triazolo[4,3-a]pyrazin-7(8H)-yl)(4-fluorophenyl)methanone]	significantly suppressed	
Cc1nsc(-c2nnc3n2CCN(C(=O)c2ccc(Cl)c(F)c2)[C@@H]3C)n1 [Compound 4, (R)-(4-chloro-3-fluorophenyl)(8-methyl-3-(3-methyl-1,2,4-thiadiazol-5-yl)-5,6-dihydro-[1,2,4]triazolo[4,3-a]pyrazin-7(8H)-yl)methanone]	significantly suppressed	
Cc1nsc(-c2nnc3n2CCN(C(=O)c2ccc(F)cc2)[C@@H]3C)n1 [Compound 5, (R)-(4-fluorophenyl)(8-methyl-3-(3-methyl-1,2,4-thiadiazol-5-yl)-5,6-dihydro-[1,2,4]triazolo[4,3-a]pyrazin-7(8H)-yl)methanone]	significantly suppressed	FSH secretion [1]: preserved; LH [1]: significant decrease; LH:FSH in comparison of placebo [1]: significantly reduced; TT in comparison of placebo [1]: significantly reduced; pyrogenic response to feeding [2]: not observed; plasma testosterone level (plasma testosterone): significantly suppressed; estradiol levels (plasma estradiol): significantly decreased
Cc1nsc(-c2nnc3n2CCN(C(=O)c2ccc(F)c(F)c2F)[C@@H]3C)n1 [Compound 8, (R)-(8-methyl-3-(3-methyl-1,2,4-thiadiazol-5-yl)-5,6-dihydro-[1,2,4]triazolo[4,3-a]pyrazin-7(8H)-yl)(2,3,4-trifluorophenyl)methanone]	significantly suppressed	
Cc1nsc(-c2nnc3n2CCN(C(=O)c2ccc(F)c(F)c2)[C@@H]3C)n1 [Compound 9, (R)-(3,4-difluorophenyl)(8-methyl-3-(3-methyl-1,2,4-thiadiazol-5-yl)-5,6-dihydro-[1,2,4]triazolo[4,3-a]pyrazin-7(8H)-yl)methanone]	significantly suppressed	
CCc1noc(-c2nnc3n2CCN(C(=O)c2ccc(F)cc2)[C@@H]3C)n1 [Compound 13, (R)-(3-(3-ethyl-1,2,4-oxadiazol-5-yl)-8-methyl-5,6-dihydro-[1,2,4]triazolo[4,3-a]pyrazin-7(8H)-yl)(4-fluorophenyl)methanone]	significantly suppressed	
Cc1nsc(-c2nnc3n2CCN(C(=O)c2ccccc2)[C@@H]3C)n1 [Compound 20, (R)-(8-methyl-3-(3-methyl-1,2,4-thiadiazol-5-yl)-5,6-dihydro-[1,2,4]triazolo[4,3-a]pyrazin-7(8H)-yl)(phenyl)methanone]	significantly suppressed	
CCc1noc(-c2nnc3n2CCN(C(=O)c2ccc(-c4cccs4)cc2)[C@@H]3C)n1 [Compound 30, (R)-(3-(3-ethyl-1,2,4-oxadiazol-5-yl)-8-methyl-5,6-dihydro-[1,2,4]triazolo[4,3-a]pyrazin-7(8H)-yl)(4-(thiophen-2-yl)phenyl)methanone]	significantly suppressed	
